# Source: US20120322728A1, “PPAR-SPARING THIAZOLIDINEDIONES AND COMBINATIONS FOR THE TREATMENT OF DIABETES MELLITUS AND OTHER METABOLIC DISEASES” (Metabolic Solutions Development Company, LLC, priority 2009, published 2012)
# Legend:
# BAT precursor cells = assay: BAT differentiation: UCP1 protein by Western blot; type: cell-based, mice; settings: BAT precursor cells treated with 0.1 to 10 μM for 7 days
# Description: Precursors of BAT are isolated from the interscapular adipose pad of either normal or diabetic mice and cultured in vitro as described below based on the modifications recited in Petrovic N, Shabalina I G, Timmons J A, Cannon B, Nedergaard J. Am. J. Physiol. Endocrinol. Metab. 295:E287-E296, 2008, hereby incorporated by reference.
# The brown fat pads are pooled and minced, digested for 45 minutes in isolation buffer containing 0.15% (wt/vol) collagenase. The cell suspension is filtered through a 100 μm nylon filter and centrifuged at 200×g for 5 minutes. […]
# Cells are then treated with the compounds, compound salts, or co-crystals thereof being assayed for BAT differentiation. […] The development of the BAT phenotype is assessed by direct measure of the uncoupling protein 1 (UCP1), which is emblematic of brown adipose cells.
# Following treatment of the cells, the growth medium is aspirated, rinsed with PBS, and lysed with KHM buffer containing 1% Igepal CA-630, and a protease inhibitor cocktail. The lysate is centrifuged at 8,000×g for 5 minutes (4° C.), the supernatant containing the cell lysate is collected and total protein analyzed using the BCA method. […] Densitometry is conducted on the scanned films using ImageJ software and analyzed using GraphPad Prism software. […]
# PGC-1α = assay: Expression of PGC-1α mRNA in precursor BAT cells with norepinephrine (quantitative PCR); type: cell-based, mice; settings: for PGC-1α mRNA in the presence of norepinephrine: 3 μM compound for seven days, then 1 μM norepinephrine for 2 hours
# Description: Another example of the ability of augmented signaling between cyclic nucleotides and compounds of Formula I is shown by the effect on expression of PGC-1a, a known regulator of mitochondrial biogenesis. Increased numbers of mitochondria are predictive of utility for the reduction of body weight.
# Precursor BAT cells were isolated as described above and treated with or without 3 μM compounds: 1.] Compound A: 5-(4-(2-(5-ethylpyridin-2-yl)-2-oxoethoxy)benzyl)-1,3-thiazolidine-2,4-dione; 2.] Compound C: 5-(4-(2R)-2-(5-ethylpyridin-2-yl)-2-hydroxyethoxyy)benzyl)-1,3-thiazolidine-2,4-dione; or Compound B: 5-(4-(2-(3-methoxyphenyl)-2-oxoethoxy)benzyl)-1,3-thiazolidine-2,4-dione for seven days followed by treatment with 1 μM norepinephrine for 2 hours. Total RNA was isolated from the cells and the RNA message (mRNA) for PGC-1α was measured by quantitative polymerase chain reactions.
# [1] = AUC of compound related materials after oral dosing of Compound B forms; type: in vivo; settings: 250 mg free acid equivalents, formulated tablets, N=4 cynomolgus monkeys
# Description: Referring to FIG. 8, the area under the curve (AUC) of compound related materials was compared following dosing of 250 mg of Compound B as powder in capsules of free acid (PIC), formulated tablets of micronized free acid, or formulated tablets of the Na or K salt of Compound B given at the same free acid equivalents. (N=4 cynomolgus monkeys). The formulated, compressed tablet also contained in each case approximately 40.5% lactose, 16.8% microcrystalline cellulose, 1.9% Croscarmellose sodium, 0.5% colloidal silicon dioxide, and 0.9% magnesium stearate.
# [2] = Bioavailability of sodium salt of Compound A, crossover, oral capsule versus iv injection; type: in vivo; settings: 90 mg free base equivalents, 4 male cynomolgus monkeys
# Description: The monkeys fasted overnight and were dosed by oral gavage washed down with 10 ml tap water. Blood samples were taken at 0.25, 0.5, 1, 2, 3, 4, 6, 9, 12, 24, and 48 hours after a single dosage was administered and assayed for drug related materials with a LCMS assay using an internal standard. 90 mg of drug was put in 00 gelatin capsules containing 90 mg of free base equivalents. This was compared to an iv injection of 2 ml/kg and 45 mg of free base solution in 50% hydroxypropyl b-cyclodextran. The absolute availability versus an iv injection was determined for both parent compound and major metabolite.
# diabetic KKAy mouse = assay: Blood glucose lowering in diabetic KKAy mouse; type: in vivo; settings: diabetic KKAy mice (N=6), gavage once daily, plasma glucose after 4 daily doses
# Description: In these experiments, free base or sodium salt was given to diabetic KKAy mice (N=6) and blood glucose was measured after 4 days of daily treatment at the doses indicated. KKAy mice, 8-12 weeks of age, were given the doses of the compounds according to the dosages on the X axis of FIG. 9. The compounds were given by gavage once daily at 10 mg/kg. On the fifth day (after 4 daily doses at the levels show) a blood sample was taken to measure plasma glucose.
smiles,measurement,setting,value
"CCc1ccc(C(=O)COc2ccc(CC3SC(=O)NC3=O)cc2)nc1 (stereo not shown) [5-(4-(2-(5-ethylpyridin-2-yl)-2-oxoethoxy)benzyl)-1,3-thiazolidine-2,4-dione]",amount of UCP1 (Western blot),BAT precursor cells,dose-dependent increase
"CCc1ccc(C(=O)COc2ccc(CC3SC(=O)NC3=O)cc2)nc1 (stereo not shown) [Compound A, 5-(4-(2-(5-ethylpyridin-2-yl)-2-oxoethoxy)benzyl)-1,3-thiazolidine-2,4-dione]",PGC-1α mRNA in the presence of norepinephrine,PGC-1α,increase
"COc1cccc(C(=O)COc2ccc(CC3SC(=O)NC3=O)cc2)c1 (stereo not shown) [Compound B, 5-(4-(2-(3-methoxyphenyl)-2-oxoethoxy)benzyl)-1,3-thiazolidine-2,4-dione]",PGC-1α mRNA in the presence of norepinephrine,PGC-1α,increase
CCc1ccc([C@@H](O)COc2ccc(CC3SC(=O)NC3=O)cc2)nc1 (stereo partly shown) [Compound C],PGC-1α mRNA in the presence of norepinephrine,PGC-1α,increase
"NC[C@H](O)c1ccc(O)c(O)c1 [norepinephrine, reference compound]","PGC-1α mRNA, norepinephrine alone","PGC-1α; absence of compound (control), 1 μM norepinephrine for 2 hours",did not produce an increase
"COc1cccc(C(=O)COc2ccc(CC3SC(=O)[N-]C3=O)cc2)c1.[K+] (stereo not shown) [potassium salt of Compound B, Potassium 5-{4-[2-(3-methoxyphenyl)-2-oxoethoxy]benzyl}-2,4-dioxo-1,3-thiazolidin-3-ide]",bioavailability (AUC of compound related materials) versus free acid,[1],significantly higher bioavailability
"CCc1ccc(C(=O)COc2ccc(CC3SC(=O)[N-]C3=O)cc2)nc1.[Na+] (stereo not shown) [sodium salt of Compound A, Sodium 5-{4-[2-(5-ethylpyridin-2-yl)-2-oxoethoxy]benzyl}-2,4-dioxo-1,3-thiazolidin-3-ide]",absolute bioavailability of major metabolite versus free base,[2],significantly higher bioavailability
same,absolute bioavailability of parent compound versus free base,[2],significantly higher bioavailability
same,lowering blood glucose,diabetic KKAy mouse,excellent dose response
"COc1cccc(C(=O)COc2ccc(CC3SC(=O)[N-]C3=O)cc2)c1.[Na+] (stereo not shown) [sodium salt of Compound B, Sodium 5-{4-[2-(3-methoxyphenyl)-2-oxoethoxy]benzyl}-2,4-dioxo-1,3-thiazolidin-3-ide]",bioavailability (AUC of compound related materials) versus free acid,[1],significantly higher bioavailability
